Experimental data: patent US5073562A, “Alkoxy-substituted dihydrobenzopyran-2-carboxylic acids and derivatives thereof” (G. D. Searle & Co., priority 1990, dated 1991)

Columns and labels:
[1] = test system: Human neutrophils (LTB4 chemotaxis); assay: Modified Boyden Chamber Chemotaxis, LTB4; assay type: cell-based; parameters: key to Chemotaxis LTB4, inactive at the dose tested: IA: Inactive at the dose tested; conditions: for Relative Potency, Chemotaxis LTB4: potency relative to the compound of Example 1(b), defined as 1.0, 3×10^-8 M LTB4, 40-90 minute, 37° C.
Protocol: (§1) Human neutrophils were isolated from citrated peripheral blood using standard techniques of dextran sedimentation, followed by centrifugation on Histopaque® sterile solution (Sigma) or Ficoll-paque® (Pharmacia) and hypotonic lysis of erythrocytes. A final cell suspension of 3.4×10^6 neutrophils/ml of HEPES-buffered Hanks' balanced salt solution (HBSS, pH 7.3) was added to the upper well (0.8 ml) of a modified Boyden chamber (blind well). […] The number of neutrophils migrating into the lower chamber in the absence of chemoattractant was subtracted from the number of cells migrating in the presence of a chemoattractant. Inhibition of chemotaxis by test compounds was expressed as percent inhibition relative to uninhibited control. […] Pat. No. 4,889,871.

[2] = test system: Human neutrophils (fMLP chemotaxis); assay: Modified Boyden Chamber Chemotaxis, fMLP; assay type: cell-based; conditions: for Relative Potency, Chemotaxis fMLP: potency relative to the compound of Example 1(b), defined as 1.0
Protocol: as §1

[3] = target: T1, LTB4 Receptor (Homo sapiens, UniProt Q15722); assay: LTB4 Receptor Binding Assay ((3H) LTB4, neutrophils); conditions: potency relative to the compound of Example 1(b), defined as 1.0, 0.6×10^-9 M (3H) LTB4, 0° C., 45 minutes
T1 construct: Neutrophils were purified from venous blood of normal human donors; endogenous in cells; host or cells: human peripheral blood neutrophils (purity >95%)
T1 sequence (Q15722 whole entry): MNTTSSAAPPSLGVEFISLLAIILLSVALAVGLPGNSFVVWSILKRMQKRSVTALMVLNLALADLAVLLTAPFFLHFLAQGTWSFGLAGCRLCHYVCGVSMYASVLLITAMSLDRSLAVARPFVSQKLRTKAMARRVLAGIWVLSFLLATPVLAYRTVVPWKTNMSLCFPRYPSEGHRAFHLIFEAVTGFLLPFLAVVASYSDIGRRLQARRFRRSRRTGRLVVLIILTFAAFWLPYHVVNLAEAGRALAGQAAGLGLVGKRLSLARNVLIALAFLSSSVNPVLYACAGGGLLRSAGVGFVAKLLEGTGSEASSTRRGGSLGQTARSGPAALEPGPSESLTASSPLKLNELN
Protocol: The incubation was carried out at 0° C. for 45 minutes and terminated by adding 5 ml of ice-cold HBSS followed by rapid filtration of the incubation mixture under vacuum through GF/C glass fiber filters. The filters were further washed with 10 ml HBSS and radioactivity was determined. […] All data refer to specific binding. […] Pat. No. 4,889,871.

| SMILES | IC50 ([1]; Homo sapiens, Neutrophil, value in parentheses, 3×10^-8 M LTB4) | IC50 ([2]; Homo sapiens, Neutrophil, value in parentheses) | Relative Potency, LTB4 Receptor Binding [3] | Relative Potency, Chemotaxis LTB4 [1] | Relative Potency, Chemotaxis fMLP [2] | Chemotaxis LTB4, inactive at the dose tested ([1]; dose not given, 3×10^-8 M LTB4) |
| --- | --- | --- | --- | --- | --- | --- |
| CCCc1c(OCCCOc2ccc(C(C)=O)c(OC)c2CCC)ccc2c1OC(C(=O)O)CC2 (centres unmarked) [Example 1(b), 7-[3-(4-acetyl-3-methoxy-2-propylphenoxy)propoxy]-3,4-dihydro-8-propyl-2H-1-benzopyran-2-carboxylic acid, reference compound] | 1.8 µM | 5.4 µM | – | – | – | – |
| CCCc1c(OCCCOc2ccc(-c3cocn3)c(OC)c2CCC)ccc2c1OC(C(=O)O)CC2 (centres unmarked) [Example 5, 3,4-Dihydro-7-[3-[3-methoxy-4-(4-oxazolyl)-2-propylphenoxy]propoxy]-8-propyl-2H-1-benzopyran-2-carboxylic acid] | – | – | 4.0 | 2.2 | 0.73 | – |
| CCCc1c(OCCCOc2ccc(-c3c[nH]c(SCc4ccccc4)n3)c(OC)c2CCC)ccc2c1OC(C(=O)O)CC2 (centres unmarked) [Example 8, 3,4-Dihydro-7-[3-[3-methoxy-4-[2-[(phenylmethyl)thio]-1H-imidazol-4-yl]-2-propylphenoxy]propoxy]-8-propyl-2H-1-benzopyran-2-carboxylic acid] | – | – | 2.65 | 1.86 | 2.0 | – |
| CCCc1c(OCCCOc2ccc(-c3c[nH]cn3)c(OC)c2CCC)ccc2c1OC(C(=O)O)CC2 (centres unmarked) [Example 9] | – | – | 1.0 | 0.66 | 0.45 | – |
| CCCc1c(OCCCOc2ccc(-c3csc(N)n3)c(OC)c2CCC)ccc2c1OC(C(=O)O)CC2 (centres unmarked) [Example 10, 7-[3-[4-(2-amino-4-thiazolyl)3-methoxy-2propylphenoxy]propoxy]3,4-dihydro-8-propyl-2H-1-benzopyran-2-carboxylic acid] | – | – | 1.56 | 0.63 | 1.4 | – |
| CCCc1c(OCCCOc2ccc(-c3cscn3)c(OC)c2CCC)ccc2c1OC(C(=O)O)CC2 (centres unmarked) [Example 12, 3,4-dihydro-7-[3-[3-methoxy-2-propyl-4-(4-thiazolyl)phenoxy]-propoxy]-8-propyl-2H-1-benzopyran-2-carboxylic acid] | – | – | 4.5 | 3.0 | 1.1 | – |
| CCCc1c(OCCCOc2ccc(-c3coc(C)n3)c(OC)c2CCC)ccc2c1OC(C(=O)O)CC2 (centres unmarked) [Example 14, 3,4-dihydro-7-[3-[3-methoxy-4-(2-methyl-4-oxazolyl)-2-propylphenoxy]propoxy]-8-propyl-2H-1-benzopyran-2-carboxylic acid] | – | – | 0.47 | < 0.1 | – | – |
| C=CCc1c(OCCCOc2ccc3c(c2CCC)OC(C(=O)O)CC3)ccc(-c2cscn2)c1OC (centres unmarked) [Example 17, 3,4-dihydro-7-[3-[3-methoxy-2-(2-propenyl)-4-(4-thiazolyl)-phenoxy]propoxy]-8-propyl-2H-1-benzopyran-2-carboxylic acid] | – | – | 11.6 | 8.3 | 1.9 | – |
| CCCc1c(OCCCOc2ccc(-c3csc(OC)n3)c(OC)c2CCC)ccc2c1OC(C(=O)O)CC2 (centres unmarked) [Example 24, 3,4-Dihydro-7-[3-[3-methoxy-4-(2-methoxy-4-thiazolyl)-2-propylphenoxy]propoxy]-8-propyl-2H-1-benzopyran-2-carboxylic acid] | – | – | 0.31 | < 0.23 | – | – |
| CCCc1c(OCCCOc2ccc(-c3csc(=S)[nH]3)c(OC)c2CCC)ccc2c1OC(C(=O)O)CC2 (centres unmarked) [Example 26, 3,4-Dihydro-7-[3-[4-(2,3-dihydro-2-thioxo-4-thiazolyl)-3-methoxy-2-propylphenoxy]propoxy]-8-propyl-2H-1-benzopyran-2-carboxylic acid] | – | – | 0.51 | – | – | – |
| CCCc1c(OCCCOc2ccc(-c3csc(SC)n3)c(OC)c2CCC)ccc2c1OC(C(=O)O)CC2 (centres unmarked) [Example 28] | – | – | 0.19 | 0.05 | – | – |
| CCCc1c(OCCCOc2ccc(-c3csc(SCc4ccccc4)n3)c(OC)c2CCC)ccc2c1OC(C(=O)O)CC2 (centres unmarked) [Example 29] | – | – | 0.02 | – | – | IA |
